Where two headings read alike, the source gives them in different places.
Experiments:
[1] = system: AMO-1 multiple myeloma cells; assay: Quantification of the cleaved form of PARP in vivo (MSD ELISA, tumour lysates); design: species or system mice (SCID strain); settings: activation factor: cleaved PARP in treated mice / control mice, AMO-1 xenograft in SCID mice, intraveinous or oral routes
Procedure: The ability of the compounds of the invention to induce apoptosis, by measuring cleaved PARP levels, is evaluated in a xenograft model of AMO-1 multiple myeloma cells. 1.10^7 AMO-1 cells are grafted sub-cutaneously into immunosuppressed mice (SCID strain). 12 to 14 days after the graft, the animals are treated by intraveinous or oral routes with the various compounds. After treatment, the tumour masses are recovered and lysed, and the cleaved form of PARP is quantified in the tumour lysates.
The quantification is carried out using the “Meso Scale Discovery (MSD) ELISA platform” test, which specifically assays the cleaved form of PARP. It is expressed in the form of an activation factor corresponding to the ratio between the quantity of cleaved PARP in the treated mice divided by the quantity of cleaved PARP in the control mice.

[2] = system: H929 multiple myeloma tumour line; assay: In vitro cytotoxicity, Microculture Tetrazolium Assay; type: cell-based; settings: H929 cells, 48 hours exposure, MTT, read-out: IC50 (μM) MTT H929
Procedure: The cytotoxicity studies were carried out on the H929 multiple myeloma tumour line.
The cells are distributed onto microplates and exposed to the test compounds for 48 hours.

Mcl-1 protein = Mcl-1 protein (UniProtKB primary accession number: Q07820) (Homo sapiens, UniProt Q07820); assay: Inhibition of Mcl-1 by fluorescence polarisation, Method 1; type: binding; settings: read-out: IC50 (M) Mcl-1 FP
Sequence of Mcl-1 protein (Q07820 whole entry): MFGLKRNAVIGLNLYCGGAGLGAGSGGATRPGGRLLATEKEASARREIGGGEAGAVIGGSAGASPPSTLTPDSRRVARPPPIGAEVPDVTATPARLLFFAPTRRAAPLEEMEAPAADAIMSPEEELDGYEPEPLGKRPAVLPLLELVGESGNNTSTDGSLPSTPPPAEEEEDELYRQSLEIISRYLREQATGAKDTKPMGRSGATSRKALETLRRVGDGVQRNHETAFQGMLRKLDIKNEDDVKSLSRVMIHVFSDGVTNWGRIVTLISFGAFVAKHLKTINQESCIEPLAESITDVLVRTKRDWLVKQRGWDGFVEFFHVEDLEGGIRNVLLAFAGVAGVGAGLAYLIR
Summary of the method: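 Buffer of 10 mM HEPES pH 7.4 with 150 mM NaCl and 0.05% Tween 20 held 5 nM Mcl-1 and 1 nM fluorescein-tagged ligand (final). Compounds were tested as 11-point serial dilutions at 5% final DMSO, and binding was read by FP.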

[3] = fluorescence polarisation test, Method 2 values are underlined in the patent (underlining not visible here)
[4] = fluorescence polarisation, Method 1, or Method 2

## COc1cc(COc2ccccc2CC(Oc2ncnc3sc(-c4ccc(F)o4)c(-c4ccc(OCCN5CCN(C)CC5)c(Cl)c4C)c23)C(=O)O)ccn1 [Example 168, (2R)-2-{[(5Sa)-5-{3-chloro-2-methyl-4-[2-(4-methylpiperazin-1-yl)ethoxy]phenyl}-6-(5-fluorofuran-2-yl)thieno[2,3-d]pyrimidin-4-yl]oxy}-3-{2-[(2-methoxypyridin-4-yl)methoxy]phenyl}propanoic acid]
[1]
  PARP fold: 179.2 fold
[2]; Homo sapiens, NCI-H929, 48 h
  IC50: 0.025 µM
Mcl-1 protein; [3]
  IC50: 2.8e-09 M

## Cc1c(-c2c(-c3ccc(F)o3)sc3ncnc(OC(Cc4ccccc4OCc4ccnc(C5CC5)n4)C(=O)O)c23)ccc(OCCN2CCN(C)CC2)c1Cl [Example 170, (2R)-2-{[(5Sa)-5-{3-chloro-2-methyl-4-[2-(4-methylpiperazin-1-yl)ethoxy]phenyl}-6-(5-fluorofuran-2-yl)thieno[2,3-d]pyrimidin-4-yl]oxy}-3-{2-[(2-cyclopropylpyrimidin-4-yl)methoxy]phenyl}propanoic acid]
[1]
  PARP fold: 144 fold
[2]; Homo sapiens, NCI-H929, 48 h
  IC50: 0.006 µM
Mcl-1 protein; [3]
  IC50: 5.3e-09 M

## Cc1c(-c2c(-c3ccc(F)o3)sc3ncnc(OC(Cc4ccccc4OCc4ccnc(-c5cccs5)n4)C(=O)O)c23)ccc(OCCN2CCN(C)CC2)c1Cl [Example 171, (2R)-2-{[(5Sa)-5-{3-chloro-2-methyl-4-[2-(4-methylpiperazin-1-yl)ethoxy]phenyl}-6-(5-fluorofuran-2-yl)thieno[2,3-d]pyrimidin-4-yl]oxy}-3-(2-{[2-(thiophen-2-yl)pyrimidin-4-yl]methoxy}phenyl)propanoic acid]
[1]
  PARP fold: 207.4 fold
[2]; Homo sapiens, NCI-H929, 48 h
  IC50: 0.003 µM
Mcl-1 protein; [3]
  IC50: 4.1e-09 M

## CCOc1nccc(COc2ccccc2CC(Oc2ncnc3sc(-c4ccc(F)o4)c(-c4ccc(OCCN5CCN(C)CC5)c(Cl)c4C)c23)C(=O)O)n1 [Example 177, (2R)-2-{[(5Sa)-5-{3-chloro-2-methyl-4-[2-(4-methylpiperazin-1-yl)ethoxy]phenyl}-6-(5-fluorofuran-2-yl)thieno[2,3-d]pyrimidin-4-yl]oxy}-3-{2-[(2-ethoxypyrimidin-4-yl)methoxy]phenyl}propanoic acid]
[1]
  PARP fold: 233.8 fold
[2]; Homo sapiens, NCI-H929, 48 h
  IC50: 0.005 µM
Mcl-1 protein; [3]
  IC50: 2.8e-09 M

## Cc1cnccc1-c1nccc(COc2ccccc2CC(Oc2ncnc3sc(-c4ccc(F)o4)c(-c4ccc(OCCN5CCN(C)CC5)c(Cl)c4C)c23)C(=O)O)n1 [Example 198, (2R)-2-{[(5Sa)-5-{3-chloro-2-methyl-4-[2-(4-methylpiperazin-1-yl)ethoxy]phenyl}-6-(5-fluorofuran-2-yl)thieno[2,3-d]pyrimidin-4-yl]oxy}-3-(2-{[2-(3-methylpyridin-4-yl)pyrimidin-4-yl]methoxy}phenyl)propanoic acid]
[1]
  PARP fold: 280 fold
[2]; Homo sapiens, NCI-H929, 48 h
  IC50: 0.002 µM
Mcl-1 protein; [3]
  IC50: 7.7e-09 M

## Cc1c(-c2c(-c3ccc(F)o3)sc3ncnc(OC(Cc4ccccc4OCc4ccnc(N5CCOCC5)n4)C(=O)O)c23)ccc(OCCN(C)C)c1Cl [Example 202, (2R)-2-{[(5Sa)-5-{3-chloro-4-[2-(dimethylamino)ethoxy]-2-methylphenyl}-6-(5-fluorofuran-2-yl)thieno[2,3-d]pyrimidin-4-yl]oxy}-3-(2-{[2-(morpholin-4-yl)pyrimidin-4-yl]methoxy}phenyl)propanoic acid]
[1]
  PARP fold: 153.8 fold
[2]; Homo sapiens, NCI-H929, 48 h
  IC50: 0.009 µM
Mcl-1 protein; [3]
  IC50: 3.5e-09 M

## Cc1c(-c2c(-c3ccco3)sc3ncnc(OC(Cc4ccccc4OCc4ccnc(OCC5CC5)n4)C(=O)O)c23)ccc(OCCN2CCN(C)CC2)c1Cl [Example 256, (2R)-2-{[(5Sa)-5-{3-chloro-2-methyl-4-[2-(4-methylpiperazin-1-yl)ethoxy]phenyl}-6-(furan-2-yl)thieno[2,3-d]pyrimidin-4-yl]oxy}-3-(2-{[2-(cyclopropylmethoxy)pyrimidin-4-yl]methoxy}phenyl)propanoic acid]
[1]
  PARP fold: 125.1 fold
[2]; Homo sapiens, NCI-H929, 48 h
  IC50: 0.006 µM
Mcl-1 protein; [3]
  IC50: 4.8e-09 M

## COCCOc1ccccc1CC(Oc1ncnc2sc(-c3ccco3)c(-c3ccc(OCCN4CCN(C)CC4)c(Cl)c3C)c12)C(=O)O [Example 290, (2R)-2-{[(5Sa)-5-{3-chloro-2-methyl-4-[2-(4-methylpiperazin-1-yl)ethoxy]phenyl}-6-(furan-2-yl)thieno[2,3-d]pyrimidin-4-yl]oxy}-3-[2-(2-methoxyethoxy)phenyl]propanoic acid]
[1]
  PARP fold: 121 fold
[2]; Homo sapiens, NCI-H929, 48 h
  IC50: 0.097 µM
Mcl-1 protein; [3]
  IC50: 5.8e-09 M

## CC#Cc1sc2ncnc(O[C@H](Cc3ccccc3OCc3ccnc(-c4ccncc4C)n3)C(=O)O)c2c1-c1ccc(OCCN2CCN(C)CC2)c(Cl)c1C [Example 483, (2R)-2-{[(5Sa)-5-{3-chloro-2-methyl-4-[2-(4-methylpiperazin-1-yl)ethoxy]phenyl}-6-(prop-1-yn-1-yl)thieno[2,3-d]pyrimidin-4-yl]oxy}-3-(2-{[2-(3-methylpyridin-4-yl)pyrimidin-4-yl]methoxy}phenyl)propanoic acid]
[1]
  PARP fold: 411 fold
[2]
  IC50: 0.003 µM
Mcl-1 protein; [4]
  IC50: 5.2e-09 M

## CC#Cc1sc2ncnc(OC(Cc3ccccc3OCc3ccnc(N4CCOCC4)n3)C(=O)O)c2c1-c1ccc(OCCN2CCN(C)CC2)c(Cl)c1C [Example 485, (2R)-2-{[(5Sa)-5-{3-chloro-2-methyl-4-[2-(4-methylpiperazin-1-yl)ethoxy]phenyl}-6-(prop-1-yn-1-yl)thieno[2,3-d]pyrimidin-4-yl]oxy}-3-(2-{[2-(morpholin-4-yl)pyrimidin-4-yl]methoxy}phenyl)propanoic acid]
[1]
  PARP fold: 110.8 fold
[2]; Homo sapiens, NCI-H929, 48 h
  IC50: 0.012 µM
Mcl-1 protein; [4]
  IC50: 4.3e-09 M

## CC#Cc1sc2ncnc(OC(Cc3ccccc3OCc3ccnc(OCC(F)(F)F)n3)C(=O)O)c2c1-c1ccc(OCCN2CCN(C)CC2)c(Cl)c1C [Example 487, (2R)-2-{[(5Sa)-5-{3-chloro-2-methyl-4-[2-(4-methylpiperazin-1-yl)ethoxy]phenyl}-6-(prop-1-yn-1-yl)thieno[2,3-d]pyrimidin-4-yl]oxy}-3-(2-{[2-(2,2,2-trifluoroethoxy)pyrimidin-4-yl]methoxy}phenyl)propanoic acid]
[1]
  PARP fold: 141.4 fold
[2]; Homo sapiens, NCI-H929, 48 h
  IC50: 0.004 µM
Mcl-1 protein; [4]
  IC50: 6.5e-09 M

## CC#Cc1sc2ncnc(OC(Cc3ccccc3OCc3ccnn3C(C)(C)C)C(=O)O)c2c1-c1ccc(OCCN2CCN(C)CC2)c(Cl)c1C [Example 488, (2R)-3-{2-[(1-tert-butyl-1H-pyrazol-5-yl)methoxy]phenyl}-2-{[(5Sa)-5-{3-chloro-2-methyl-4-[2-(4-methylpiperazin-1-yl)ethoxy]phenyl}-6-(prop-1-yn-1-yl)thieno[2,3-d]pyrimidin-4-yl]oxy}propanoic acid]
[1]
  PARP fold: 175.5 fold
[2]; Homo sapiens, NCI-H929, 48 h
  IC50: 0.014 µM
Mcl-1 protein; [4]
  IC50: 5.4e-09 M

## CC#Cc1sc2ncnc(OC(Cc3ccccc3OCc3ccnn3CC(F)(F)F)C(=O)O)c2c1-c1ccc(OCCN2CCN(C)CC2)c(Cl)c1C [Example 489, (2R)-2-{[(5Sa)-5-{3-chloro-2-methyl-4-[2-(4-methylpiperazin-1-yl)ethoxy]phenyl}-6-(prop-1-yn-1-yl)thieno[2,3-d]pyrimidin-4-yl]oxy}-3-(2-{[1-(2,2,2-trifluoroethyl)-1H-pyrazol-5-yl]methoxy}phenyl)propanoic acid]
[1]
  PARP fold: 233.2 fold
[2]; Homo sapiens, NCI-H929, 48 h
  IC50: 0.026 µM
Mcl-1 protein; [4]
  IC50: 1.2e-09 M

## Cc1c(-c2c(-c3ccc(F)cc3)sc3ncnc(OC(Cc4ccccc4OCc4ccnc(-c5ccccc5O)n4)C(=O)O)c23)ccc(OCCN2CCN(C)CC2)c1Cl [Example 722, (2R)-2-{[(5Sa)-5-{3-chloro-2-methyl-4-[2-(4-methylpiperazin-1-yl)ethoxy]phenyl}-6-(4-fluorophenyl)thieno[2,3-d]pyrimidin-4-yl]oxy}-3-(2-{[2-(2-hydroxyphenyl)pyrimidin-4-yl]methoxy}phenyl)propanoic acid]
[1]
  PARP fold: 296.6 fold
[2]; Homo sapiens, NCI-H929, 48 h
  IC50: 0.023 µM
Mcl-1 protein; [4]
  IC50: 1.4e-09 M

## Cc1c(-c2c(-c3ccc(F)cc3)sc3ncnc(OC(Cc4ccccc4OCc4ccnc(-c5ccccc5OC(C)C)n4)C(=O)O)c23)ccc(OCCN2CCN(C)CC2)c1Cl [Example 723, (2R)-2-{[(5Sa)-5-{3-chloro-2-methyl-4-[2-(4-methylpiperazin-1-yl)ethoxy]phenyl}-6-(4-fluorophenyl)thieno[2,3-d]pyrimidin-4-yl]oxy}-3-[2-({2-[2-(propan-2-yloxy)phenyl]pyrimidin-4-yl}methoxy)phenyl]propanoic acid]
[1]
  PARP fold: 191.2 fold
[2]; Homo sapiens, NCI-H929, 48 h
  IC50: 0.004 µM
Mcl-1 protein; [4]
  IC50: 1.18e-09 M

## COCCOc1ccccc1-c1nccc(COc2ccccc2CC(Oc2ncnc3sc(-c4ccc(F)cc4)c(-c4ccc(OCCN5CCN(C)CC5)c(Cl)c4C)c23)C(=O)O)n1 [Example 724, (2R)-2-{[(5Sa)-5-{3-chloro-2-methyl-4-[2-(4-methylpiperazin-1-yl)ethoxy]phenyl}-6-(4-fluorophenyl)thieno[2,3-d]pyrimidin-4-yl]oxy}-3-[2-({2-[2-(2-methoxyethoxy)phenyl]pyrimidin-4-yl}methoxy)phenyl]propanoic acid]
[1]
  PARP fold: 188.9 fold
[2]; Homo sapiens, NCI-H929, 48 h
  IC50: 0.002 µM
Mcl-1 protein; [4]
  IC50: 9.48e-10 M

From patent US9670227B2, “Thienopyrimidine derivatives, a process for their preparation and pharmaceutical compositions containing them” (LES LABORATOIRES SERVIER, priority 2013, dated 2017)
